Test results from ChEMBL document CHEMBL1201862, “PubChem BioAssay data set” (2004).
Several values for one entry are separate records, joined by “and”; a condition that tells them apart may be missing. Equal values may be shown once. Activity calls are given as the source filed them.

What was measured:
[1] = target: Peroxisome proliferator-activated receptor gamma (Homo sapiens, UniProt P37231); experiment: PPARg transcriptional activation, reporter cells – cell-based, luminescence, assay provider, dose response (AID 504447); type: functional
[2] = target: T1, Heat shock factor protein 1 (Mus musculus, UniProt P38532); experiment: decrease of HSF1-responsive luciferase luminescence – cell-based, NIH3T3, dose retest, confirmation (AID 2382); type: functional;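 further: NIH3T3 fibroblasts with HSF1-driven luciferase reporter stressed by proteasome inhibitor MG132; luminescence from HSF1-driven luciferase expression after 8 hours of MG132 stress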
T1 sequence (P38532 whole entry): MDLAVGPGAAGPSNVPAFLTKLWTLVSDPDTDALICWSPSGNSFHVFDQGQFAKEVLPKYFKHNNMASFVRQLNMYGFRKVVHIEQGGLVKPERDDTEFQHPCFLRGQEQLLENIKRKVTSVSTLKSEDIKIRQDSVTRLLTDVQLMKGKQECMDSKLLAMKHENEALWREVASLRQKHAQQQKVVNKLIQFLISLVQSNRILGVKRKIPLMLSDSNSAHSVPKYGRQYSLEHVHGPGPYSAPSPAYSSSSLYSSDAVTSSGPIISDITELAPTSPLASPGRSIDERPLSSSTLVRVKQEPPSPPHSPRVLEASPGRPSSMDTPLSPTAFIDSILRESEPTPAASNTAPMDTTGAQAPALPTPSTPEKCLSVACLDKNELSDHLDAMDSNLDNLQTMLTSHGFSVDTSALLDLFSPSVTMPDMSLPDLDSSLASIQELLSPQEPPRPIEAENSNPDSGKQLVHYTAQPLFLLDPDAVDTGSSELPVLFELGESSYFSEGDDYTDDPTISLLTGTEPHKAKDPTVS

Coagulation factor XII = target: T2, Coagulation factor XII (Homo sapiens, UniProt P00748); experiment: Factor XIIa Dose Response Confirmation from Single Well HTS. [Related pubchem assays (depositor defined):AID701]; type: functional
T2 sequence (P00748 whole entry): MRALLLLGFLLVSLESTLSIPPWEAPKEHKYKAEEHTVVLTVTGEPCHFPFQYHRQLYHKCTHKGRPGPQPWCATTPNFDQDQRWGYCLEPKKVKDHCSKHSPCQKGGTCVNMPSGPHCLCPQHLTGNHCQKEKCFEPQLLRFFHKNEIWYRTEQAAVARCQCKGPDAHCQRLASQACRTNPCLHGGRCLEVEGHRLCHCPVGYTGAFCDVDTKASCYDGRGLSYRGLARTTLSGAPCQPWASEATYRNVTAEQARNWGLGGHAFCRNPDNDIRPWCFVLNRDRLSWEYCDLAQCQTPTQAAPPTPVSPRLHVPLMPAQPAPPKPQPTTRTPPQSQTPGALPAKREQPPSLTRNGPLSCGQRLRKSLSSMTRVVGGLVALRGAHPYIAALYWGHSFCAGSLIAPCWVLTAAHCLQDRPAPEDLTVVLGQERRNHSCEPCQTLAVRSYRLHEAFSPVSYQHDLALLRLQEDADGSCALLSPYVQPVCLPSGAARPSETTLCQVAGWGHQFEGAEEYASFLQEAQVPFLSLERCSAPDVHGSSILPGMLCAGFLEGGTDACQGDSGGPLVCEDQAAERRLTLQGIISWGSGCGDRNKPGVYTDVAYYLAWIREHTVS

Hexokinase-1 = Hexokinase-1 (Homo sapiens, UniProt P19367); experiment: HK1 enzyme activation by HKDC1 hits – biochemical, selectivity assay for HKDC1 activator project, dose response (AID 504762); type: functional
Nonstructural protein 1 = Nonstructural protein 1 (Influenza A virus, UniProt Q194T2); type: functional, Influenza A virus (A/California/07/2009(H1N1))
Hexokinase HKDC1 = Hexokinase HKDC1 (Homo sapiens, UniProt Q2TB90); experiment: activation of HKDC1 glucose phosphorylation – biochemical, W721R variant, dose response (AID 504730); type: functional
[3] = target: Heat shock protein HSP 90-alpha (Homo sapiens, UniProt P07900); type: functional, organism-based
[4] = target: Voltage-dependent T-type calcium channel subunit alpha-1H (Homo sapiens, UniProt O95180); experiment: human CACNA1H calcium influx blockade – cell-based, synthetic library set 1, calcium flux (AID 493022); type: functional
Troponin, cardiac muscle = Troponin, cardiac muscle (Homo sapiens, UniProt P19429+P45379+P63316); experiment: Fluorescence-based biochemical high throughput dose response assay for activators of the calcium sensitivity of cardiac Regulated Thin Filaments (RTF). [Related pubchem assays (depositor defined):AID493008, AID493018, AID504382, AID504383]; type: protein-complex assay
[5] = target: T3, Runt-related transcription factor 1/Core-binding factor subunit beta (Homo sapiens, UniProt Q01196+Q13951); experiment: disruptors of Runt domain/CBFb-SMMHC interaction – biochemical, FRET, Cerulean-Runt, Venus-CBFb-SMMHC, uHTS, […] (AID 1434); type: protein assay
[6] = target: T3, Runt-related transcription factor 1/Core-binding factor subunit beta; experiment: Runt domain/CBFb-SMMHC interaction disruptors – biochemical, TR-FRET (AID 1438); type: protein assay
[7] = target: Glyceraldehyde-3-phosphate dehydrogenase (Homo sapiens, UniProt P04406)
[8] = target: Alkaline phosphatase, placental type (Homo sapiens, UniProt P05187); experiment: human placental alkaline phosphatase inhibition – biochemical, luminescence, confirmation (AID 1512); type: functional
[9] = target: T4, Alkaline phosphatase, tissue-nonspecific isozyme (Homo sapiens, UniProt P05186); experiment: SAR assay for compounds inhibiting TNAP in the absence of phosphate acceptor performed in a luminescent assay. [Related pubchem assays (depositor defined):AID1548, AID1659, AID518]
T4 sequence (P05186 whole entry): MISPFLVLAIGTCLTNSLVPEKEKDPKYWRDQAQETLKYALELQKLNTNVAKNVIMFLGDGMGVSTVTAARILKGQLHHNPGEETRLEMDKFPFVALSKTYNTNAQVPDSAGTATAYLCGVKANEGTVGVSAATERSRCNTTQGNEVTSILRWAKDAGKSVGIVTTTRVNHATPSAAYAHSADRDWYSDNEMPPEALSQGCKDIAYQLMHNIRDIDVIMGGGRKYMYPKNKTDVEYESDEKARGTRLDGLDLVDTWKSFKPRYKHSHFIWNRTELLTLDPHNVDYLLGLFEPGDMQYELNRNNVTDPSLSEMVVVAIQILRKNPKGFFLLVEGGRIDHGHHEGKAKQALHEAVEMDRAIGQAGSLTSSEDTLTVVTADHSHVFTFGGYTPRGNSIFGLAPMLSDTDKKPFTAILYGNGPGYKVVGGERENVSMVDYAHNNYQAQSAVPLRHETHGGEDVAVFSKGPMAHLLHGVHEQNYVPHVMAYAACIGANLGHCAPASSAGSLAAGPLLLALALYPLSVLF

[10] = target: T4, Alkaline phosphatase, tissue-nonspecific isozyme; experiment: potency against alkaline phosphatase TNAP – biochemical, luminescent, dose response, SAR follow-up (AID 1056)

SMILES: Cc1cc(C(=O)CN2C(=O)C(=O)N(Cc3ccccc3)C2=O)c(C)n1-c1ccc2c(c1)OCCO2
- EC50 [1]: 15 µM (active)
- EC50 [2]: > 195 µM (not active)

SMILES: CC(C)CN(CC(C)C)S(=O)(=O)N1CCC(C(=O)NCCc2ccc(Cl)cc2)CC1
- IC50 (Coagulation factor XII): > 50 µM (inactive)

SMILES: CC(=NNC(=S)Nc1cccc(C)c1)c1ccccn1
- EC50 (Hexokinase-1): > 80 µM (inactive)
- IC50 (Nonstructural protein 1): 8.54 µM (active)
- EC50 (Hexokinase HKDC1): 2.27 µM (active)
- AC50 [3]: 2.25 µM (active)

SMILES: Cc1ccc(-c2nnc(NC(=O)C(C)(C)Oc3ccccc3)o2)cc1C
- EC50 [4]: 2.1 µM (active)

SMILES: Oc1[nH]nc(C(F)(F)F)c1/C=N/c1cccc(Cl)c1
- EC50 (Troponin, cardiac muscle): > 71.5 µM (inactive)

SMILES: Cn1c(=O)c(/C=N/c2ccccc2)c(O)c2ccccc21
- IC50 [5]: > 100 µM (inactive)
- IC50 [6]: > 100 µM (inactive)

SMILES: COc1ccc(C)cc1S(=O)(=O)Nc1cccnc1
- IC50 [7]: > 100 µM (not active)
- IC50 [8]: > 100 µM (inactive)
- IC50 [9]: 16.6 µM (active) and 16.4 µM (active)
- IC50 [10]: 2.34 µM (active) and 1.6 µM (active)
